Where no end group is shown, it is not given here.
Test: Evaluation of toxicity of the peptide, tail vein administration
Assay type: in vivo
Settings: female BALB/c mouse, 5 mg/kg
Description: The peptide of the present invention was administered to a mouse from its tail vein to thereby evaluate its toxicity. The mouse used was a female BALB/c mouse of 5 week old, and the peptide was used at a dose of 5 mg/kg.

## LARLLARLLARLLRALLRALLRAL [SEQ ID NO:27]
  toxicity after tail vein administration: died immediately after the administration
